Laboratory results as given in patent publication US20240390340A1 (INCYTE CORPORATION, priority 2023, published 2024).
pIC50: −log10 of the molar value.

Assays:
KRAS G12D = KRAS G12D (Homo sapiens, UniProt P01116, G12D); experiment: GDP-GTP exchange assay (bodipy-GDP/GppNHp, SOS1), KRAS G12D; type: biochemical; conditions: Table H, column G12D; for compounds isolated as several atropisomers/diastereoisomers the value for the most potent isomer is quoted; read-out: KRAS G12D exchange assay IC50
KRAS G12V = KRAS G12V (Homo sapiens, UniProt P01116, G12V); experiment: GDP-GTP exchange assay (bodipy-GDP/GppNHp, SOS1), KRAS G12V; type: biochemical; conditions: Table H, column G12V; for compounds isolated as several atropisomers/diastereoisomers the value for the most potent isomer is quoted; read-out: KRAS G12V exchange assay IC50
Chain of KRAS G12V (P01116 1-188 isoform P01116-2 G12V): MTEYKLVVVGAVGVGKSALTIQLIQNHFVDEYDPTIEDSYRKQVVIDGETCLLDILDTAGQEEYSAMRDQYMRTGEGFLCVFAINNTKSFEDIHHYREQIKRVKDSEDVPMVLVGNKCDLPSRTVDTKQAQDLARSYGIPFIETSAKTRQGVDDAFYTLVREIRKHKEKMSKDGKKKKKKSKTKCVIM

Caco-2 cells = experiment: Caco2 assay (Papp A-B); type: in vitro ADME; conditions: test compound 50 μM, 120 min, 37° C.
Summary of the method: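 Caco-2 monolayers grown 22–25 days on Transwells (TEER 300 Ω·cm^2) were dosed apically with 50 μM compound in HBSS; basolateral receiver held HBSS with 4% BSA. Incubation 120 min at 37° C, 5% CO2; donor and receiver samples quantified by LCMS and Papp A-B calculated from receiver-side cumulative flux slope.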

Chain of KRAS G12D (P01116 1-188 isoform P01116-2 G12D): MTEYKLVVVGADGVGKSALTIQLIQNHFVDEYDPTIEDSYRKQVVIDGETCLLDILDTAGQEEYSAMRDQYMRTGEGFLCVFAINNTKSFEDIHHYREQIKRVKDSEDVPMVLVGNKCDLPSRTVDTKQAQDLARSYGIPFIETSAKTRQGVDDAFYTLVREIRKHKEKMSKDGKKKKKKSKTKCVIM

For COc1cc(O[C@H]2C[C@H](c3cc4c([C@@H](C)O)nc5c(F)c(-c6cccc(Cl)c6Cl)c(CCC#N)cc5c4n3[C@H]3[C@H]4CN[C@@H]3C4)N(C(=O)C3CC3)C2)ncn1 [Example 57, 3-(1-((1R,4R,5S)-2-Azabicyclo[2.1.1]hexan-5-yl)-2-((2R,4S)-1-(cyclopropanecarbonyl)-4-((6-methoxypyrimidin-4-yl)oxy)pyrrolidin-2-yl)-7-(2,3-dichlorophenyl)-6-fluoro-4-((R)-1-hydroxyethyl)-1H-pyrrolo[3,2-c]quinolin-8-yl)propanenitrile], the pIC50 (KRAS G12D) was no less than 7.00, the pIC50 (KRAS G12V) was no less than 7.00 and the Caco-2 (Caco-2 cells) was “++ (a Caco-2 value of >0.5 but ≤1)”.

Cc1nc2c(F)c(-c3cccc(Cl)c3Cl)c(CCC#N)cc2c2c1cc([C@H]1C[C@H](Oc3ncccc3F)CN1C(=O)C1CC1)n2[C@H]1[C@H]2CN[C@@H]1C2 [Example 58, 3-(1-((1R,4R,5S)-2-Azabicyclo[2.1.1]hexan-5-yl)-2-((2R,4S)-1-(cyclopropanecarbonyl)-4-((3-fluoropyridin-2-yl)oxy)pyrrolidin-2-yl)-7-(2,3-dichlorophenyl)-6-fluoro-4-methyl-1H-pyrrolo[3,2-c]quinolin-8-yl)propanenitrile] was tested, and the pIC50 (KRAS G12D) was no less than 7.00, the pIC50 (KRAS G12V) was no less than 7.00 and the Caco-2 (Caco-2 cells) was “+++ (a Caco-2 value of >1)”.

In the case of Cc1nc2c(F)c(-c3cccc(Cl)c3Cl)c(CCC#N)cc2c2c1cc([C@H]1C[C@H](Oc3ccc(C#N)cn3)CN1C(=O)C1CC1)n2[C@H]1[C@H]2CN[C@@H]1C2 [Example 60, 6-(((3S,5R)-5-(1-((1R,4R,5S)-2-Azabicyclo[2.1.1]hexan-5-yl)-8-(2-cyanoethyl)-7-(2,3-dichlorophenyl)-6-fluoro-4-methyl-1H-pyrrolo[3,2-c]quinolin-2-yl)-1-(cyclopropanecarbonyl)pyrrolidin-3-yl)oxy)nicotinonitrile], the pIC50 (KRAS G12D) was no less than 7.00, the pIC50 (KRAS G12V) was no less than 7.00 and the Caco-2 (Caco-2 cells) was “+ (a Caco-2 value of ≤0.5)”.

In the case of Cc1cc(F)cc(O[C@H]2C[C@H](c3cc4c([C@@H](C)O)nc5c(F)c(-c6cccc(Cl)c6Cl)c(CCC#N)cc5c4n3[C@H]3[C@H]4CN[C@@H]3C4)N(C(=O)C3CC3)C2)n1 [Example 62, 3-(1-((1R,4R,5S)-2-Azabicyclo[2.1.1]hexan-5-yl)-2-((2R,4S)-1-(cyclopropanecarbonyl)-4-((4-fluoro-6-methylpyridin-2-yl)oxy)pyrrolidin-2-yl)-7-(2,3-dichlorophenyl)-6-fluoro-4-((R)-1-hydroxyethyl)-1H-pyrrolo[3,2-c]quinolin-8-yl)propanenitrile], the pIC50 (KRAS G12D) was no less than 7.00, the pIC50 (KRAS G12V) was no less than 7.00 and the Caco-2 (Caco-2 cells) was “++ (a Caco-2 value of >0.5 but ≤1)”.

With C[C@@H]1[C@@H](Oc2cc(F)ccn2)C[C@H](c2cc3c([C@@H](C)O)nc4c(F)c(-c5cccc(Cl)c5Cl)c(CCC#N)cc4c3n2[C@H]2[C@H]3CN[C@@H]2C3)N1C(=O)C1CC1 [Example 63, 3-(1-((1R,4R,5S)-2-Azabicyclo[2.1.1]hexan-5-yl)-2-((2R,4S,5R)-1-(cyclopropanecarbonyl)-4-((4-fluoropyridin-2-yl)oxy)-5-methylpyrrolidin-2-yl)-7-(2,3-dichlorophenyl)-6-fluoro-4-((R)-1-hydroxyethyl)-1H-pyrrolo[3,2-c]quinolin-8-yl)propanenitrile] the pIC50 (KRAS G12D) was no less than 7.00, the pIC50 (KRAS G12V) was no less than 7.00 and the Caco-2 (Caco-2 cells) was “++ (a Caco-2 value of >0.5 but ≤1)”.

C[C@@H]1[C@@H](Oc2c(F)ccnc2Cl)C[C@H](c2cc3c([C@@H](C)O)nc4c(F)c(-c5cccc(Cl)c5Cl)c(CCC#N)cc4c3n2[C@H]2[C@H]3CN[C@@H]2C3)N1C(=O)C1CC1 [Example 64, 3-(1-((1R,4R,5S)-2-Azabicyclo[2.1.1]hexan-5-yl)-2-((2R,4S,5R)-4-((2-chloro-4-fluoropyridin-3-yl)oxy)-1-(cyclopropanecarbonyl)-5-methylpyrrolidin-2-yl)-7-(2,3-dichlorophenyl)-6-fluoro-4-((R)-1-hydroxyethyl)-1H-pyrrolo[3,2-c]quinolin-8-yl)propanenitrile] was tested, and the pIC50 (KRAS G12D) was no less than 7.00, the pIC50 (KRAS G12V) was no less than 7.00 and the Caco-2 (Caco-2 cells) was “+++ (a Caco-2 value of >1)”.

With Cc1nc2c(F)c(-c3cccc(Cl)c3Cl)c(CCC#N)cc2c2c1cc([C@H]1C[C@H](Oc3cccc(N4CC(F)C4)n3)CN1C(=O)C1CC1)n2[C@H]1[C@H]2CN[C@@H]1C2 [Example 65, 3-(1-((1R,4R,5S)-2-Azabicyclo[2.1.1]hexan-5-yl)-2-((2R,4S)-1-(cyclopropanecarbonyl)-4-((6-(3-fluoroazetidin-1-yl)pyridin-2-yl)oxy)pyrrolidin-2-yl)-7-(2,3-dichlorophenyl)-6-fluoro-4-methyl-1H-pyrrolo[3,2-c]quinolin-8-yl)propanenitrile] the pIC50 (KRAS G12D) was no less than 7.00, the pIC50 (KRAS G12V) was no less than 7.00 and the Caco-2 (Caco-2 cells) was “+ (a Caco-2 value of ≤0.5)”.

In the case of Cc1nc2c(F)c(-c3cccc(Cl)c3Cl)c(CCC#N)cc2c2c1cc([C@H]1C[C@H](n3cc(C4(C(F)F)CC4)nn3)CN1C(=O)C1CC1)n2[C@H]1[C@H]2CN[C@@H]1C2 [Example 67, 3-(1-((1R,4R,5S)-2-Azabicyclo[2.1.1]hexan-5-yl)-2-((2R,4S)-1-(cyclopropanecarbonyl)-4-(4-(1-(difluoromethyl)cyclopropyl)-1H-1,2,3-triazol-1-yl)pyrrolidin-2-yl)-7-(2,3-dichlorophenyl)-6-fluoro-4-methyl-1H-pyrrolo[3,2-c]quinolin-8-yl)propanenitrile], the pIC50 (KRAS G12D) was no less than 7.00, the pIC50 (KRAS G12V) was no less than 7.00 and the Caco-2 (Caco-2 cells) was “+ (a Caco-2 value of ≤0.5)”.

For Cc1nc2c(F)c(-c3cccc(Cl)c3Cl)c(CCC#N)cc2c2c1cc([C@H]1C[C@H](n3cc(C45CC(C4)C5)nn3)CN1C(=O)C1CC1)n2[C@H]1[C@H]2CN[C@@H]1C2 [Example 68, 3-(2-((2R,4S)-4-(4-(Bicyclo[1.1.1]pentan-1-yl)-1H-1,2,3-triazol-1-yl)-1-(cyclopropanecarbonyl)pyrrolidin-2-yl)-1-((1R,4R,5S)-2-azabicyclo[2.1.1]hexan-5-yl)-7-(2,3-dichlorophenyl)-6-fluoro-4-methyl-1H-pyrrolo[3,2-c]quinolin-8-yl)propanenitrile], the pIC50 (KRAS G12D) was no less than 7.00, the pIC50 (KRAS G12V) was no less than 7.00 and the Caco-2 (Caco-2 cells) was “+ (a Caco-2 value of ≤0.5)”.

In the case of Cc1nc2c(F)c(-c3cccc(Cl)c3Cl)c(CCC#N)cc2c2c1cc([C@H]1C[C@H](n3cc(C4CCCCC4)nn3)CN1C(=O)C1CC1)n2[C@H]1[C@H]2CN[C@@H]1C2 [Example 69, 3-(1-((1R,4R,5S)-2-Azabicyclo[2.1.1]hexan-5-yl)-2-((2R,4S)-4-(4-cyclohexyl-1H-1,2,3-triazol-1-yl)-1-(cyclopropanecarbonyl)pyrrolidin-2-yl)-7-(2,3-dichlorophenyl)-6-fluoro-4-methyl-1H-pyrrolo[3,2-c]quinolin-8-yl)propanenitrile], the pIC50 (KRAS G12D) was no less than 7.00, the pIC50 (KRAS G12V) was no less than 7.00 and the Caco-2 (Caco-2 cells) was “+ (a Caco-2 value of ≤0.5)”.

For CCc1c(-c2ccccc2)nnn1[C@H]1C[C@H](c2cc3c(C)nc4c(F)c(-c5cccc(Cl)c5Cl)c(CCC#N)cc4c3n2[C@H]2[C@H]3CN[C@@H]2C3)N(C(=O)C2CC2)C1 [Example 70, 3-(1-((1R,4R,5S)-2-Azabicyclo[2.1.1]hexan-5-yl)-2-((2R,4S)-1-(cyclopropanecarbonyl)-4-(5-ethyl-4-phenyl-1H-1,2,3-triazol-1-yl)pyrrolidin-2-yl)-7-(2,3-dichlorophenyl)-6-fluoro-4-methyl-1H-pyrrolo[3,2-c]quinolin-8-yl)propanenitrile], the pIC50 (KRAS G12D) was no less than 7.00, the pIC50 (KRAS G12V) was no less than 7.00 and the Caco-2 (Caco-2 cells) was “+ (a Caco-2 value of ≤0.5)”.

With Cc1nc2c(F)c(-c3cccc(Cl)c3Cl)c(CCC#N)cc2c2c1cc([C@H]1C[C@H](n3nncc3C3CCCC3)CN1C(=O)C1CC1)n2[C@H]1[C@H]2CN[C@@H]1C2 [Example 71, 3-(1-((1R,4R,5S)-2-Azabicyclo[2.1.1]hexan-5-yl)-2-((2R,4S)-4-(5-cyclopentyl-1H-1,2,3-triazol-1-yl)-1-(cyclopropanecarbonyl)pyrrolidin-2-yl)-7-(2,3-dichlorophenyl)-6-fluoro-4-methyl-1H-pyrrolo[3,2-c]quinolin-8-yl)propanenitrile] the pIC50 (KRAS G12D) was no less than 7.00, the pIC50 (KRAS G12V) was no less than 7.00 and the Caco-2 (Caco-2 cells) was “+ (a Caco-2 value of ≤0.5)”.

For Cc1nc2c(F)c(-c3cccc(Cl)c3Cl)c(CCC#N)cc2c2c1cc([C@H]1C[C@H](n3cc(F)cn3)CN1C(=O)C1CC1)n2[C@H]1[C@H]2CN[C@@H]1C2 [Example 72, 3-(1-((1R,4R,5S)-2-Azabicyclo[2.1.1]hexan-5-yl)-2-((2R,4S)-1-(cyclopropanecarbonyl)-4-(4-fluoro-1H-pyrazol-1-yl)pyrrolidin-2-yl)-7-(2,3-dichlorophenyl)-6-fluoro-4-methyl-1H-pyrrolo[3,2-c]quinolin-8-yl)propanenitrile], the pIC50 (KRAS G12D) was no less than 7.00, the pIC50 (KRAS G12V) was no less than 7.00 and the Caco-2 (Caco-2 cells) was “++ (a Caco-2 value of >0.5 but ≤1)”.

For Cc1nc2c(F)c(-c3cccc(Cl)c3Cl)c(CCC#N)cc2c2c1cc([C@H]1C[C@H](n3nccn3)CN1C(=O)C1CC1)n2[C@H]1[C@H]2CN[C@@H]1C2 [Example 74, 3-(1-((1R,4R,5S)-2-Azabicyclo[2.1.1]hexan-5-yl)-2-((2R,4S)-1-(cyclopropanecarbonyl)-4-(2H-1,2,3-triazol-2-yl)pyrrolidin-2-yl)-7-(2,3-dichlorophenyl)-6-fluoro-4-methyl-1H-pyrrolo[3,2-c]quinolin-8-yl)propanenitrile], the pIC50 (KRAS G12D) was no less than 7.00, the pIC50 (KRAS G12V) was no less than 7.00 and the Caco-2 (Caco-2 cells) was “++ (a Caco-2 value of >0.5 but ≤1)”.

In the case of Cc1nc2c(F)c(-c3cccc(Cl)c3Cl)c(CCC#N)cc2c2c1cc([C@H]1C[C@H](n3nnc(N4CCCC4)n3)CN1C(=O)C1CC1)n2[C@H]1[C@H]2CN[C@@H]1C2 [Example 75, 3-(1-((1R,4R,5S)-2-Azabicyclo[2.1.1]hexan-5-yl)-2-((2R,4S)-1-(cyclopropanecarbonyl)-4-(5-(pyrrolidin-1-yl)-2H-tetrazol-2-yl)pyrrolidin-2-yl)-7-(2,3-dichlorophenyl)-6-fluoro-4-methyl-1H-pyrrolo[3,2-c]quinolin-8-yl)propanenitrile], the pIC50 (KRAS G12D) was no less than 7.00, the pIC50 (KRAS G12V) was no less than 7.00 and the Caco-2 (Caco-2 cells) was “+ (a Caco-2 value of ≤0.5)”.
